For assay [1], the target named is Serine/threonine-protein kinase B-raf (Homo sapiens, UniProt P15056). Kind of assay: (§1) Kinase Assay: Inhibition of kinase activity by test compound disclosed herein was estimated by quantifying the amount of [33P] incorporation of substrate in the presence of test compound. Standard assay conditions were 2 ng of recombinant C-Raf or 5 ng of recombinant B-Raf or 5 ng of recombinant B-Raf (V600E) kinase (Upstate Biotechnology) with 500 ng MEK1(K97R) in assay buffer {8 μM ATP, 0.5 μCi [33P]ATP (specific activity 3000 Ci/mmol, PerkinElmer), 50 mM Tris/HCl (pH7.5), and 1 mM EGTA, 1 mM Na3VO4, 1% 2-mercaptoethanol, 0.1% Brij 35, and 0.2 mg/ml BSA} at a final volume of 25 μL. Reactions were incubated at 30° C. for 30 min and stopped by adding 3% phosphoric acid, harvested onto a 96-well GF/B UniFilter (PerkinElmer) using a unifilter harvester (PerkinElmer), and counted with a TopCount microplate scintillation counter (PerkinElmer). The IC50 values of inhibitors were determined after carrying out assays at 3-fold serially diluted concentrations of each compound in duplication.
Sequence of Serine/threonine-protein kinase B-raf (P15056 whole entry): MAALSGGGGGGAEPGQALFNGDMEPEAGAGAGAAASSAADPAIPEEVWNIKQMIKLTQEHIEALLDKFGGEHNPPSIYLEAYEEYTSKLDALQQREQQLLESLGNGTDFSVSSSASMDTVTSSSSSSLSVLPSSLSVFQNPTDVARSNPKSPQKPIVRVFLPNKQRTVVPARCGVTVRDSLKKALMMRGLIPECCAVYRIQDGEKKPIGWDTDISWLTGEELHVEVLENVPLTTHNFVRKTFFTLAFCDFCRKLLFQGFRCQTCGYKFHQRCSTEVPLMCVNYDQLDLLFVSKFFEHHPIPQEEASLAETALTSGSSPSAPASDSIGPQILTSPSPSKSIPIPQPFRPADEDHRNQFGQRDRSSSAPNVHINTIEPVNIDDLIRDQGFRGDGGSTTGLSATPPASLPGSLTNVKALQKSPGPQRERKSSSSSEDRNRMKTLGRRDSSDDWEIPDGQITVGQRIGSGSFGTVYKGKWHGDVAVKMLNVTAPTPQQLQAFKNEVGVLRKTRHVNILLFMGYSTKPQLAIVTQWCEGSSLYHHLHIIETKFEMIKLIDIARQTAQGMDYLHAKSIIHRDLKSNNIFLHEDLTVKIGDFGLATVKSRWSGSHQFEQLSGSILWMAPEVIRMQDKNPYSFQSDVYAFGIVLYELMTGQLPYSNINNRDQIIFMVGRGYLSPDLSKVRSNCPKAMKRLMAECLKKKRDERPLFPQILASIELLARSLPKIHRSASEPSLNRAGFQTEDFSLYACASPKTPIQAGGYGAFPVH

Assay [2] has as its target RAF proto-oncogene serine/threonine-protein kinase (Homo sapiens, UniProt P04049). The description is as §1.

Sequence of RAF proto-oncogene serine/threonine-protein kinase (P04049 whole entry): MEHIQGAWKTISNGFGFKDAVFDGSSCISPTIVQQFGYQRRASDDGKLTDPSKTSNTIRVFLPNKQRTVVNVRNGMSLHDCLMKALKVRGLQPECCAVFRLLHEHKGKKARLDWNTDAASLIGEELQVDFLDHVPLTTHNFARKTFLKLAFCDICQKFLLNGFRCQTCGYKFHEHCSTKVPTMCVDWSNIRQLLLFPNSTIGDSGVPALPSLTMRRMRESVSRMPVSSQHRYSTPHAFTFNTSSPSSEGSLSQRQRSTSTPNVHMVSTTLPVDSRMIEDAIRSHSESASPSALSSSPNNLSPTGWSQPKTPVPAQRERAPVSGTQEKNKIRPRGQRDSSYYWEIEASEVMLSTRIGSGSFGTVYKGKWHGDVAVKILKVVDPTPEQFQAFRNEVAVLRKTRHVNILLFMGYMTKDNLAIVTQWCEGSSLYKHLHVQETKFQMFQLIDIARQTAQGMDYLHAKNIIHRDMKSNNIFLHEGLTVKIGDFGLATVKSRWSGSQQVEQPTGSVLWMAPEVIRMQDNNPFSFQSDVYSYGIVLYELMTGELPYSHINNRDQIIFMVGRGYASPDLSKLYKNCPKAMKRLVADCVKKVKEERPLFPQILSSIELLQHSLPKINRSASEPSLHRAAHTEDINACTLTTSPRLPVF

With `Nc1ccc(F)c(-c2ccc3ncnc(Nc4cccc5[nH]ncc45)c3c2)c1`, the IC50 was 251 nM in assay [1] and 2370 nM in assay [2].

One may read the IC50 as the concentration at which inhibition is half-maximal.

These data come from ChEMBL document CHEMBL3638563, “Quinazoline compounds as kinase inhibitors” (2014).
